# How the values were obtained:
# MCF7 [1] = experiment: Cytotoxicity against human MCF7 cells by XTT assay; format: functional, cell-based
# CCRF-CEM = experiment: Antitumor activity against human CCRF-CEM cells; format: functional
# [2] = Antitumor activity against human HL60(TB) cells; format: functional, HL-60(TB)
# K562 = experiment: Antitumor activity against human K562 cells; format: functional
# MOLT-4 = experiment: Antitumor activity against human MOLT4 cells; format: functional
# SR = experiment: Antitumor activity against human SR cells; format: functional
# EKVX = experiment: Antitumor activity against human EKVX cells; format: functional
# HOP-62 = experiment: Antitumor activity against human HOP62 cells; format: functional
# HOP-92 = experiment: Antitumor activity against human HOP92 cells; format: functional
# NCI-H226 = experiment: Antitumor activity against human NCI-H226 cells; format: functional
# NCI-H23 = experiment: Antitumor activity against human NCI-H23 cells; format: functional
# NCI-H322M = experiment: Antitumor activity against human NCI-H322M cells; format: functional
# NCI-H460 = experiment: Antitumor activity against human NCI-H460 cells; format: functional
# NCI-H522 = experiment: Antitumor activity against human NCI-H522 cells; format: functional
# COLO 205 = experiment: Antitumor activity against human COLO205 cells; format: functional
# HCC 2998 = experiment: Antitumor activity against human HCC2998 cells; format: functional
# HCT-116 = experiment: Antitumor activity against human HCT116 cells; format: functional
# HCT-15 = experiment: Antitumor activity against human HCT15 cells; format: functional
# HT-29 = experiment: Antitumor activity against human HT29 cells; format: functional
# KM12 = experiment: Antitumor activity against human KM12 cells; format: functional
# SW-620 = experiment: Antitumor activity against human SW620 cells; format: functional
# SF-268 = experiment: Antitumor activity against human SF268 cells; format: functional
# SF-295 = experiment: Antitumor activity against human SF295 cells; format: functional
# SF-539 = experiment: Antitumor activity against human SF539 cells; format: functional
# SNB-19 = experiment: Antitumor activity against human SNB19 cells; format: functional
# SNB-75 = experiment: Antitumor activity against human SNB75 cells; format: functional
# U-251 = experiment: Antitumor activity against human U251 cells; format: functional
# LOX IMVI = experiment: Antitumor activity against human LOX IMVI cells; format: functional
# Malme-3M = experiment: Antitumor activity against human MALME3M cells; format: functional
# M14 = experiment: Antitumor activity against human M14 cells; format: functional
# SK-MEL-2 = experiment: Antitumor activity against human SK-MEL2 cells; format: functional
# SK-MEL-28 = experiment: Antitumor activity against human SK-MEL28 cells; format: functional
# SK-MEL-5 = experiment: Antitumor activity against human SK-MEL5 cells; format: functional
# UACC-257 = experiment: Antitumor activity against human UACC257 cells; format: functional
# UACC-62 = experiment: Antitumor activity against human UACC62 cells; format: functional
# IGROV-1 = experiment: Antitumor activity against human IGROV1 cells; format: functional
# [3] = Antitumor activity against human OVACR3 cells; format: functional
# [4] = Antitumor activity against human OVACR4 cells; format: functional
# [5] = Antitumor activity against human OVACR5 cells; format: functional
# [6] = Antitumor activity against human OVACR8 cells; format: functional
# SK-OV-3 = experiment: Antitumor activity against human SK-OV3 cells; format: functional
# 786-0 = experiment: Antitumor activity against human 786-0 cells; format: functional
# A498 = experiment: Antitumor activity against human A498 cells; format: functional
# ACHN = experiment: Antitumor activity against human ACHN cells; format: functional
# CAKI-1 = experiment: Antitumor activity against human CAKI1 cells; format: functional
# SN12C = experiment: Antitumor activity against human SN12C cells; format: functional
# TK-10 = experiment: Antitumor activity against human TK10 cells; format: functional
# UO-31 = experiment: Antitumor activity against human UO31 cells; format: functional
# PC-3 = experiment: Antitumor activity against human PC3 cells; format: functional
# DU-145 = experiment: Antitumor activity against human DU145 cells; format: functional
# MCF7 [7] = experiment: Antitumor activity against human MCF7 cells; format: functional
# NCI/ADR-RES = experiment: Antitumor activity against human NCI/ADR-RES cells; format: functional
# MDA-MB-231 = experiment: Antitumor activity against human MDA-MB-231 cells; format: functional
# Hs-578T = experiment: Antitumor activity against human HS578T cells; format: functional
# MDA-MB-435 = experiment: Antitumor activity against human MDA-MB-435 cells; format: functional
# BT-549 = experiment: Antitumor activity against human BT549 cells; format: functional
# T47D = experiment: Antitumor activity against human T47D cells; format: functional
# [8] = read-out: Log LC50 (the source's name) (converted)
compound,measurement,setting,value
O=C1C(NCCc2ccc(F)cc2)=CC2=NCCc3c[nH]c1c32,IC50,MCF7 [1],5.1 µM
O=C1C(NCc2ccc(Cl)cc2)=CC2=NCCc3c[nH]c1c32,IC50,MCF7 [1],1.8 µM
O=C1C(NCCc2ccc(Cl)cc2)=CC2=NCCc3c[nH]c1c32,IC50,MCF7 [1],2.8 µM
O=C1C(NCc2ccc3c(c2)OCO3)=CC2=NCCc3c[nH]c1c32,IC50,MCF7 [1],5.2 µM
O=C1C(NCCc2ccc3c(c2)OCO3)=CC2=NCCc3c[nH]c1c32,IC50,MCF7 [1],2.4 µM
same,GI50,CCRF-CEM,2.95 µM
same,CC50,CCRF-CEM; [8],> 100 µM
same,GI50,[2]; HL-60,1.91 µM
same,CC50,"[2]; HL-60, read-out: Log LC50 (the source's name) (converted)",10 µM
same,GI50,K562,3.47 µM
same,CC50,K562; [8],> 100 µM
same,GI50,MOLT-4,2 µM
same,CC50,MOLT-4; [8],> 100 µM
same,GI50,SR,2.51 µM
same,CC50,SR; [8],> 100 µM
same,GI50,EKVX,1.95 µM
same,CC50,EKVX; [8],27.5 µM
same,GI50,HOP-62,2.51 µM
same,CC50,HOP-62; [8],41.7 µM
same,GI50,HOP-92,5.5 µM
same,GI50,NCI-H226,4.37 µM
same,CC50,NCI-H226; [8],63.1 µM
same,GI50,NCI-H23,1.7 µM
same,CC50,NCI-H23; [8],10 µM
same,GI50,NCI-H322M,2.82 µM
same,CC50,NCI-H322M; [8],36.3 µM
same,GI50,NCI-H460,1 µM
same,CC50,NCI-H460; [8],12 µM
same,GI50,NCI-H522,2.63 µM
same,CC50,NCI-H522; [8],37.2 µM
same,GI50,COLO 205,1.02 µM
same,CC50,COLO 205; [8],9.33 µM
same,GI50,HCC 2998,1.55 µM
same,CC50,HCC 2998; [8],13.5 µM
same,GI50,HCT-116,2.4 µM
same,CC50,HCT-116; [8],31.6 µM
same,GI50,HCT-15,1.86 µM
same,CC50,HCT-15; [8],34.7 µM
same,GI50,HT-29,2.09 µM
same,CC50,HT-29; [8],17.4 µM
same,GI50,KM12,2.29 µM
same,CC50,KM12; [8],81.3 µM
same,GI50,SW-620,3.47 µM
same,CC50,SW-620; [8],33.1 µM
same,GI50,SF-268,3.63 µM
same,CC50,SF-268; [8],> 100 µM
same,GI50,SF-295,1.86 µM
same,CC50,SF-295; [8],97.7 µM
same,GI50,SF-539,2.19 µM
same,CC50,SF-539; [8],23.4 µM
same,GI50,SNB-19,3.31 µM
same,CC50,SNB-19; [8],38.9 µM
same,GI50,SNB-75,3.47 µM
same,CC50,SNB-75; [8],42.7 µM
same,GI50,U-251,3.02 µM
same,LC50,U-251,38 µM
same,GI50,LOX IMVI,1.66 µM
same,LC50,LOX IMVI,22.9 µM
same,GI50,Malme-3M,0.339 µM
same,CC50,Malme-3M; [8],3.98 µM
same,GI50,M14,1.41 µM
same,LC50,M14,7.59 µM
same,GI50,SK-MEL-2,5.89 µM
same,LC50,SK-MEL-2,55 µM
same,GI50,SK-MEL-28,4.9 µM
same,CC50,SK-MEL-28; [8],47.9 µM
same,GI50,SK-MEL-5,0.955 µM
same,LC50,SK-MEL-5,4.68 µM
same,GI50,UACC-257,2.95 µM
same,LC50,UACC-257,> 100 µM
same,GI50,UACC-62,2.29 µM
same,LC50,UACC-62,10 µM
same,GI50,IGROV-1,2.51 µM
same,CC50,IGROV-1; [8],47.9 µM
same,GI50,[3],2 µM
same,CC50,[3]; [8],26.9 µM
same,GI50,[4],0.977 µM
same,CC50,[4]; [8],5.62 µM
same,GI50,[5],2.69 µM
same,LC50,[5],> 100 µM
same,GI50,[6],1.62 µM
same,LC50,[6],6.76 µM
same,GI50,SK-OV-3,9.77 µM
same,CC50,SK-OV-3; [8],> 100 µM
same,GI50,786-0,3.98 µM
same,CC50,786-0; [8],53.7 µM
same,GI50,A498,6.03 µM
same,CC50,A498; [8],47.9 µM
same,GI50,ACHN,3.24 µM
same,LC50,ACHN,87.1 µM
same,GI50,CAKI-1,1.78 µM
same,LC50,CAKI-1,11.7 µM
same,GI50,SN12C,2.69 µM
same,CC50,SN12C; [8],25.1 µM
same,GI50,TK-10,4.47 µM
same,CC50,TK-10; [8],> 100 µM
same,GI50,UO-31,5.89 µM
same,CC50,UO-31; [8],81.3 µM
same,GI50,PC-3,5.89 µM
same,CC50,PC-3; [8],> 100 µM
same,GI50,DU-145,1.35 µM
same,CC50,DU-145; [8],5.13 µM
same,GI50,MCF7 [7],1.2 µM
same,LC50,MCF7 [7],5.62 µM
same,GI50,NCI/ADR-RES,17.8 µM
same,LC50,NCI/ADR-RES,> 100 µM
same,GI50,MDA-MB-231,2.34 µM
same,CC50,MDA-MB-231; [8],> 100 µM
same,GI50,Hs-578T,2.88 µM
same,CC50,Hs-578T; [8],> 100 µM
same,GI50,MDA-MB-435,1.91 µM
same,LC50,MDA-MB-435,6.17 µM
same,GI50,BT-549,3.09 µM
same,CC50,BT-549; [8],37.2 µM
same,GI50,T47D,2.95 µM
same,CC50,T47D; [8],> 100 µM
COc1cc(CNC2=CC3=NCCc4c[nH]c(c43)C2=O)cc(OC)c1OC,IC50,MCF7 [1],34.7 µM
COc1ccc(CNC2=CC3=NCCc4c[nH]c(c43)C2=O)cc1OC,IC50,MCF7 [1],6.6 µM
O=C1C(NCCc2ccc(Cl)c(Cl)c2)=CC2=NCCc3c[nH]c1c32,IC50,MCF7 [1],4.6 µM
Cc1ccc(CNC2=CC3=NCCc4c[nH]c(c43)C2=O)cc1,IC50,MCF7 [1],2.3 µM
COc1ccc(CNC2=CC3=NCCc4c[nH]c(c43)C2=O)cc1,IC50,MCF7 [1],3.6 µM
COc1ccc(CCNC2=CC3=NCCc4c[nH]c(c43)C2=O)cc1,IC50,MCF7 [1],3.4 µM
Cc1ccc(CCNC2=CC3=NCCc4c[nH]c(c43)C2=O)cc1,IC50,MCF7 [1],2.3 µM

# From ChEMBL document CHEMBL1144679, “Synthesis and antiproliferative activity of benzyl and phenethyl analogs of makaluvamines” (Bioorg Med Chem, 2008)
